# Experimental data from ChEMBL document CHEMBL4043204, “meso-Dihydroguaiaretic acid derivatives with antibacterial and antimycobacterial activity” (Bioorg Med Chem, 2017).
# Calls of active or inactive are those of the source. The rule behind the calls is not given here.
# Tests used:
# [1] = system: Staphylococcus haemolyticus; assay: Antibacterial activity against linezolid-resistant Staphylococcus haemolyticus 2975 assessed as inhibition of microbial growth incubated for 24 hrs by microdilution assay; type: functional; settings: Staphylococcus haemolyticus, 2975, 24 h
# Staphylococcus aureus = assay: Antibacterial activity against methicillin-resistant Staphylococcus aureus (14-2095) assessed as inhibition of microbial growth incubated for 24 hrs by microdilution assay; type: functional
# Vero = assay: Cytotoxicity against African green monkey Vero cells assessed as reduction in cell viability incubated for 24 hrs by trypan blue staining based assay; settings: Chlorocebus sabaeus
# [2] = system: Staphylococcus epidermidis; assay: Antibacterial activity against linezolid-resistant Staphylococcus epidermidis (14-583) assessed as inhibition of microbial growth incubated for 24 hrs by microdilution assay; type: functional
# [3] = system: Mycobacterium tuberculosis; assay: Antimycobacterial activity against Mycobacterium tuberculosis H37Rv ATCC 27294 assessed as inhibition of mycobacterial growth incubated for 2 weeks by MABA method; type: functional
# Enterococcus faecium = assay: Antibacterial activity against vancomycin-resistant Enterococcus faecium (10-984) assessed as inhibition of microbial growth incubated for 24 hrs by microdilution assay; type: functional
# [4] = Selectivity index, ratio of IC50 for cytotoxicity against African green monkey Vero cells to MIC for antibacterial activity against methicillin-resistant Staphylococcus aureus (14-2095)
# Klebsiella pneumoniae [5] = assay: Antibacterial activity against NDM-1 positive Klebsiella pneumoniae (14-3335) assessed as inhibition of microbial growth up to 50 ug/ml incubated for 24 hrs by microdilution assay; type: functional
# Acinetobacter baumannii = assay: Antibacterial activity against carbapenem-resistant Acinetobacter baumannii (12-666) assessed as inhibition of microbial growth up to 50 ug/ml incubated for 24 hrs by microdilution assay; type: functional
# Providencia rettgeri = assay: Antibacterial activity against NDM-1 positive Providencia rettgeri assessed as inhibition of microbial growth up to 50 ug/ml incubated for 24 hrs by microdilution assay; type: functional
# Klebsiella pneumoniae [6] = assay: Antibacterial activity against extended-spectrum beta-lactamase-positive Klebsiella pneumoniae (14-2081) assessed as inhibition of microbial growth up to 50 ug/ml incubated for 24 hrs by microdilution assay; type: functional
# [7] = system: Mycobacterium tuberculosis; assay: Antimycobacterial activity against Mycobacterium tuberculosis H37Rv ATCC 27294 assessed as inhibition of mycobacterial growth up to 50 ug/ml incubated for 2 weeks by MABA method; type: functional
# Escherichia coli [8] = assay: Antibacterial activity against oxacillin-resistant Escherichia coli OXA-48 assessed as inhibition of microbial growth up to 50 ug/ml incubated for 24 hrs by microdilution assay; type: functional
# [9] = system: Stenotrophomonas maltophilia; assay: Antibacterial activity against trimethoprim-sulfamethoxazole-resistant Stenotrophomonas maltophilia assessed as inhibition of microbial growth up to 50 ug/ml incubated for 24 hrs by microdilution assay; type: functional
# Escherichia coli [10] = assay: Antibacterial activity against extended-spectrum beta-lactamase-positive Escherichia coli (14-2081) assessed as inhibition of microbial growth up to 50 ug/ml incubated for 24 hrs by microdilution assay; type: functional
# Pseudomonas aeruginosa = assay: Antibacterial activity against carbapenem-resistant Pseudomonas aeruginosa (13-1391) assessed as inhibition of microbial growth up to 50 ug/ml incubated for 48 hrs by microdilution assay; type: functional
Structure (SMILES),MIC [1],MIC (Staphylococcus aureus),IC50 (Vero),MIC [2],"MIC ([3]; Mycobacterium tuberculosis, H37Rv ATCC 27294, 336 h)",MIC (Enterococcus faecium),Selectivity Index [4],Activity (Klebsiella pneumoniae [5]),Activity (Acinetobacter baumannii),Activity (Providencia rettgeri),Activity (Klebsiella pneumoniae [6]),growth inhibition (GI) [7],Activity (Escherichia coli [8]),Activity [9],Activity (Escherichia coli [10]),Activity (Pseudomonas aeruginosa),-logMIC [3]
C[C@H]1COc2c(N3CCN(C)CC3)c(F)cc3c(=O)c(C(=O)O)cn1c23.C[C@H]1COc2c(N3CCN(C)CC3)c(F)cc3c(=O)c(C(=O)O)cn1c23.O [LEVOFLOXACIN],12.5 µg/mL,3.12 µg/mL,293 µg/mL,12.5 µg/mL,0.078 µg/mL,> 50 µg/mL,93.81,,,,,,,,,,
CCCCCCCCCCCCCCCC(=O)Oc1ccc(C[C@H](C)[C@H](C)Cc2ccc(O)c(OC)c2)cc1OC (racemic),> 50 µg/mL,50 µg/mL,,> 50 µg/mL,,> 50 µg/mL,,inactive,inactive,inactive,inactive,inactive,inactive,inactive,inactive,inactive,4.54
CCCCCCCC/C=C\CCCCCCCC(=O)Oc1ccc(C[C@H](C)[C@H](C)Cc2ccc(O)c(OC)c2)cc1OC (racemic),,,,,,,,inactive,inactive,inactive,inactive,inactive,inactive,inactive,inactive,inactive,4.51
CCCCCCCCCCCCCCCC(=O)Oc1ccc(C[C@@H](C)[C@@H](C)Cc2ccc(OC(=O)CCCCCCCCCCCCCCC)c(OC)c2)cc1OC,,,,,,,,inactive,inactive,inactive,inactive,inactive,inactive,inactive,inactive,inactive,4.02
CCCC(=O)Oc1ccc(C[C@H](C)[C@H](C)Cc2ccc(O)c(OC)c2)cc1OC (racemic),,,,,,,,inactive,inactive,inactive,inactive,inactive,inactive,inactive,inactive,inactive,3.94
CCCCCCCCCCCCCCCCCC(=O)Oc1ccc(C[C@@H](C)[C@@H](C)Cc2ccc(OC(=O)CCCCCCCCCCCCCCCCC)c(OC)c2)cc1OC,,,,,,,,inactive,inactive,inactive,inactive,inactive,inactive,inactive,inactive,inactive,3.85
CCCCCCCCCCCCCCCCCC(=O)Oc1ccc(C[C@H](C)[C@H](C)Cc2ccc(O)c(OC)c2)cc1OC (racemic),,,,,,,,inactive,inactive,inactive,inactive,inactive,inactive,inactive,inactive,inactive,3.84
COc1cc(C[C@@H](C)[C@@H](C)Cc2ccc(OC(=O)c3ccccn3)c(OC)c2)ccc1OC(=O)c1ccccn1,,,,,,,,inactive,inactive,inactive,inactive,inactive,inactive,inactive,inactive,inactive,3.92
